Tests used:
Format in all cases: in vivo
[1] = system: Alopecurus myosuroides (ALOMY); assay: Example B pre-emergence herbicidal test, ALOMY; conditions: Alopecurus myosuroides, 312 h, rate 250 g/ha, evaluated after 13 days, 100=total damage to plant, 0=no damage to plant
How it was run: (§1)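 Pots sown, sprayed day 1 pre-emergence; spray: aqueous dilution of formulation in acetone/water 50:50 + 0.5% Tween 20. Glasshouse 24/16° C, 14 h light, 65% RH, watering twice daily. Visual damage rating at 13 d, 0–100 scale.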

[2] = system: Alopecurus myosuroides (ALOMY); assay: Example B post-emergence herbicidal test, ALOMY; conditions: Alopecurus myosuroides, 312 h, rate 250 g/ha, evaluated after 13 days, scale 0-100, read-out: Post-emergence activity ALOMY (100=total damage to plant; 0=no damage to plant)
How it was run: (§2)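 Damage was rated visually 13 days after treatment, where 100 meant total plant damage and 0 none. Treatment was a spray of aqueous solution (acetone/water 50:50, 0.5% Tween 20) applied to plants cultivated 8 days from seed under controlled glasshouse conditions.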

Lolium perenne (LOLPE) [3] = assay: Example B post-emergence herbicidal test, LOLPE; conditions: Lolium perenne, 312 h, rate 250 g/ha, evaluated after 13 days, scale 0-100, read-out: Post-emergence activity LOLPE (100=total damage to plant; 0=no damage to plant)
How it was run: as §2

[4] = system: Echinochloa crus-galli (ECHCG); assay: Example B pre-emergence herbicidal test, ECHCG; conditions: Echinochloa crus-galli, 312 h, rate 250 g/ha, evaluated after 13 days, 100=total damage to plant, 0=no damage to plant
How it was run: as §1

Lolium perenne (LOLPE) [5] = assay: Example B pre-emergence herbicidal test, LOLPE; conditions: Lolium perenne, 312 h, rate 250 g/ha, evaluated after 13 days, 100=total damage to plant, 0=no damage to plant
How it was run: as §1

Avena fatua (AVEFA) [6] = assay: Example B pre-emergence herbicidal test, AVEFA; conditions: Avena fatua, 312 h, rate 250 g/ha, evaluated after 13 days, 100=total damage to plant, 0=no damage to plant
How it was run: as §1

[7] = system: Echinochloa crus-galli (ECHCG); assay: Example B post-emergence herbicidal test, ECHCG; conditions: Echinochloa crus-galli, 312 h, rate 250 g/ha, evaluated after 13 days, scale 0-100, read-out: Post-emergence activity ECHCG (100=total damage to plant; 0=no damage to plant)
How it was run: as §2

Avena fatua (AVEFA) [8] = assay: Example B post-emergence herbicidal test, AVEFA; conditions: Avena fatua, 312 h, rate 250 g/ha, evaluated after 13 days, scale 0-100, read-out: Post-emergence activity AVEFA (100=total damage to plant; 0=no damage to plant)
How it was run: as §2

## COC(=O)OC1=C(c2c(C)cc(C)cc2C)C(=O)C(CC2CCOCC2)C1 (stereo not shown) [Compound P45]
[1]
  pest or weed control at 250 g/ha: 100%
[2]
  pest or weed control at 250 g/ha: 100%
Lolium perenne (LOLPE) [3]
  pest or weed control at 250 g/ha: 100%
[4]
  pest or weed control at 250 g/ha: 100%
Lolium perenne (LOLPE) [5]
  pest or weed control at 250 g/ha: 100%
Avena fatua (AVEFA) [6]
  pest or weed control at 250 g/ha: 100%
[7]
  pest or weed control at 250 g/ha: 90%
Avena fatua (AVEFA) [8]
  pest or weed control at 250 g/ha: 100%

## Cc1cc(C)c(C2C(=O)CC(CC3CCCCN3S(C)(=O)=O)C2=O)c(C)c1 (stereo not shown) [Compound T51]
[1]
  pest or weed control at 250 g/ha: 80%
[2]
  pest or weed control at 250 g/ha: 70%
Lolium perenne (LOLPE) [3]
  pest or weed control at 250 g/ha: 60%
[4]
  pest or weed control at 250 g/ha: 80%
Lolium perenne (LOLPE) [5]
  pest or weed control at 250 g/ha: 100%
Avena fatua (AVEFA) [6]
  pest or weed control at 250 g/ha: 90%
[7]
  pest or weed control at 250 g/ha: 70%
Avena fatua (AVEFA) [8]
  pest or weed control at 250 g/ha: 80%

## Cc1cc(C)c(C2C(=O)CC(CC3CCN(C(=O)Cc4ccccc4)CC3)C2=O)c(C)c1 (stereo not shown) [Compound T82]
[1]
  pest or weed control at 250 g/ha: 50%
[2]
  pest or weed control at 250 g/ha: 90%
Lolium perenne (LOLPE) [3]
  pest or weed control at 250 g/ha: 90%
[4]
  pest or weed control at 250 g/ha: 60%
Lolium perenne (LOLPE) [5]
  pest or weed control at 250 g/ha: 90%
Avena fatua (AVEFA) [6]
  pest or weed control at 250 g/ha: 50%
[7]
  pest or weed control at 250 g/ha: 80%
Avena fatua (AVEFA) [8]
  pest or weed control at 250 g/ha: 100%

## Cc1cc(C)c(C2C(=O)CC(CC3CCN(C(=O)N4CCCCC4)CC3)C2=O)c(C)c1 (stereo not shown) [Compound T120]
[1]
  pest or weed control at 250 g/ha: 30%
[2]
  pest or weed control at 250 g/ha: 30%
Lolium perenne (LOLPE) [3]
  pest or weed control at 250 g/ha: 30%
[4]
  pest or weed control at 250 g/ha: 30%
Lolium perenne (LOLPE) [5]
  pest or weed control at 250 g/ha: 20%
Avena fatua (AVEFA) [6]
  pest or weed control at 250 g/ha: 10%
[7]
  pest or weed control at 250 g/ha: 10%
Avena fatua (AVEFA) [8]
  pest or weed control at 250 g/ha: 20%

## CCS(=O)(=O)N1CCC(CC2CC(=O)C(c3c(C)cc(C)cc3C)C2=O)CC1 (stereo not shown) [Compound T95]
[1]
  pest or weed control at 250 g/ha: 90%
[2]
  pest or weed control at 250 g/ha: 90%
Lolium perenne (LOLPE) [3]
  pest or weed control at 250 g/ha: 100%
[4]
  pest or weed control at 250 g/ha: 60%
Lolium perenne (LOLPE) [5]
  pest or weed control at 250 g/ha: 100%
Avena fatua (AVEFA) [6]
  pest or weed control at 250 g/ha: 90%
[7]
  pest or weed control at 250 g/ha: 70%
Avena fatua (AVEFA) [8]
  pest or weed control at 250 g/ha: 100%

## Cc1cc(C)c(C2C(=O)C/C(=C\C3CCSCC3)C2=O)c(C)c1 (stereo not shown) [Compound T9]
[1]
  pest or weed control at 250 g/ha: 20%
[2]
  pest or weed control at 250 g/ha: 60%
Lolium perenne (LOLPE) [3]
  pest or weed control at 250 g/ha: 80%
[4]
  pest or weed control at 250 g/ha: 20%
Lolium perenne (LOLPE) [5]
  pest or weed control at 250 g/ha: 60%
Avena fatua (AVEFA) [6]
  pest or weed control at 250 g/ha: 0%
[7]
  pest or weed control at 250 g/ha: 80%
Avena fatua (AVEFA) [8]
  pest or weed control at 250 g/ha: 30%

## Cc1cc(C)c(C2C(=O)C/C(=C\C3CCCCN3S(C)(=O)=O)C2=O)c(C)c1 (stereo not shown) [Compound T47]
[1]
  pest or weed control at 250 g/ha: 20%
[2]
  pest or weed control at 250 g/ha: 30%
Lolium perenne (LOLPE) [3]
  pest or weed control at 250 g/ha: 30%
[4]
  pest or weed control at 250 g/ha: 40%
Lolium perenne (LOLPE) [5]
  pest or weed control at 250 g/ha: 60%
Avena fatua (AVEFA) [6]
  pest or weed control at 250 g/ha: 50%
[7]
  pest or weed control at 250 g/ha: 60%
Avena fatua (AVEFA) [8]
  pest or weed control at 250 g/ha: 50%

## CCC1CCC(CC2CC(=O)C(c3c(C)cc(C)cc3C)C2=O)O1 (stereo not shown) [Compound T44]
[1]
  pest or weed control at 250 g/ha: 90%
[2]
  pest or weed control at 250 g/ha: 60%
Lolium perenne (LOLPE) [3]
  pest or weed control at 250 g/ha: 70%
[4]
  pest or weed control at 250 g/ha: 60%
Lolium perenne (LOLPE) [5]
  pest or weed control at 250 g/ha: 100%
Avena fatua (AVEFA) [6]
  pest or weed control at 250 g/ha: 20%
[7]
  pest or weed control at 250 g/ha: 80%
Avena fatua (AVEFA) [8]
  pest or weed control at 250 g/ha: 40%

— patent US9096560B2, “5-heterocyclylalkyl-3-hydroxy-2-phenylcyclopent-2-enones as herbicides” (Syngenta Limited, priority 2008, dated 2015)
